Holding throughout (type): cell-based
The test system of one series is p16 (Ink4a). As to the kind of experiment: Western blot of p16 (Ink4a) expression in keratinocytes (anti-aging effect). Conditions: 10 μM, 48 hours, compared to control group (CON), P<0.05, FIG. 4. How it is done: (§1) Keratinocytes used were isolated from normal adult skin tissues obtained through repeated cesarean section and circumcision. The cells were dispensed into EpiLife Medium, and bovine pituitary extract (BPE), bovine insulin (BI), hydrocortisone, human epidermal growth factor (EGF), and bovine transferrin (BT) were added and cultured. The cells that had undergone the 3rd~5th passage culture were used in the experiment. The pituitary extract, bovine insulin, hydrocortisone, human epidermal growth factor, and bovine transferrin were used by purchasing from Invitrogen.
(§2) In order to identify the skin whitening and anti-aging effects of 16 candidate materials in Example 1-2, for the skin whitening effect, each of the three types of cell models constructed in the Example 2-1 was treated with the 16 candidate materials at concentrations at which no cytotoxicity is shown in the melanocytes identified in Example 1-1 for 48 hours, and then Western blot was performed to measure the expression of tyrosinase. The experiment was repeated 4 times, and P<0.05 was determined to be significant. In addition, for analysis on the anti-aging effect, the keratinocytes were treated with the above 16 candidate materials for 48 hours each, and then Western blot was performed to measure the expression of p16 (Ink4a). The experiment was repeated 4 times, and P<0.05 was determined to be significant.

Series [1] concerns tyrosinase. As to the kind of experiment: Western blot of intracellular tyrosinase expression in melanocytes (skin whitening effect). Conditions: T13 at 10 μM, 48 hours, compared to control group (CON), repeated 4 times or more, FIG. 2. How it is done:
(§3) Melanocytes used were isolated from normal adult skin tissues obtained through repeated cesarean section and circumcision. Dispase 2.4U (#295 825; Roche, Mannheim, Germany) was treated for 1 hour to separate the epidermis, and 0.05% trypsin was treated for 10 minutes to isolate melanocytes. Afterwards, the cells were suspended in Medium 254, and the bovine pituitary extract (BPE), fetal bovine serum (FBS), hydrocortisone, basic fibroblast growth factor (bFGF), bovine transferrin (BT), heparin, and phorbol 12-myristate13-acetate (PMA, Invitrogen) were added and cultured. The cells that had undergone the 3rd~5th passage culture were used in the experiment.
In order to identify the skin whitening effect of the 136 candidate materials, Western blot was performed. After treating melanocytes with the candidate material at a concentration at which no cytotoxicity was shown in the melanocytes identified in Example 1-2 for 48 hours, intracellular tyrosinase expression was measured. The experiment was repeated 4 times or more.
On the technique in general: Immunoblotting shows a protein as a band on a membrane.

The test system of series [2] is tyrosinase. As to the kind of experiment: Western blot of tyrosinase expression in CDH11 overexpressing keratinocyte / melanocyte co-culture model (with pCMV control gene model). Conditions: 10 μM, 48 hours, compared to control group (CON), FIG. 3. How it is done:
as §1
(§4) Melanocytes used were isolated from normal adult skin tissues obtained through repeated cesarean section and circumcision. […]
as §2, with “In addition, for analysis on the anti-aging effect, the keratinocytes were treated with the above 16 candidate materials for 48 hours each, and then Western blot was performed to measure the expression of p16 (Ink4a).” left out

The subject of series [3] is tyrosinase. Nature of the series: Western blot of tyrosinase expression in GDA overexpressing keratinocyte / melanocyte co-culture model (with pCMV control gene model). Conditions: 10 μM, 48 hours, compared to control group (CON), P<0.05, FIG. 3. How it is done: as §1, §4
as §2, with “In addition, for analysis on the anti-aging effect, the keratinocytes were treated with the above 16 candidate materials for 48 hours each, and then Western blot was performed to measure the expression of p16 (Ink4a).” left out

Another series concerns tyrosinase; p16 (Ink4a). Nature of the series: Combined analysis of skin whitening (tyrosinase in three cell models) and anti-aging (p16 in keratinocytes) effects. Conditions: 5 of 16 candidate materials; non-cytotoxic concentrations; 48 hours. How it is done:
Keratinocytes were seeded in a culture container at 2×10^5/ml, after 24 hours, pCMV plasmids containing one of three genes [arginase 2 (ARG2, NCBI Gene ID: 384), cadherin 11 (CDH11, NCBI Gene: 1009), and guanine deaminase (GDA, NCBI Gene: 9615)] were transfected into cells using Lipofectamine 2000 to induce overexpression, and after 4 hours of culture with Dulbecco's Modified Essential Medium (DMEM) culture medium without supplements, 0.5×10^5/ml melanocytes were mixed with the keratinocyte culture medium containing supplements and co-cultured in the same culture container. After 24 hours, the keratinocyte culture medium without supplements was replaced, and after 5 hours, the normal melanocytes were treated with the 16 candidate materials for 48 hours. […]
as §2, with “In addition, for analysis on the anti-aging effect, the keratinocytes were treated with the above 16 candidate materials for 48 hours each, and then Western blot was performed to measure the expression of p16 (Ink4a).” left out

The test system of series [4] is tyrosinase. Nature of the series: Western blot of tyrosinase expression in ARG2 overexpressing keratinocyte / normal melanocyte co-culture model (with pCMV control gene model). Conditions: 10 μM, 48 hours, compared to control group (CON), P<0.05, FIG. 3. As to the method: as §1, §4
as §2, with “In addition, for analysis on the anti-aging effect, the keratinocytes were treated with the above 16 candidate materials for 48 hours each, and then Western blot was performed to measure the expression of p16 (Ink4a).” left out

The subject of another series is Melanocytes. Nature of the series: MTT cytotoxicity assay in melanocytes. The conditions noted are these: up to the treatment concentration of 10 μM, 48 hours, FIG. 1. As to the method:
as §3
In order to identify cytotoxicity of the 136 candidate materials, MTT assays were performed. Melanocytes were treated with the candidate materials by concentration (10, 50, and 100 μM) for 48 hours, and the cell viability was measured to determine the concentration range at which no cytotoxicity of each candidate material is observed.

As for `COc1cc([C@@H](O)[C@H](CO)c2ccc(O)c(OC)c2)ccc1O` [T13], the “p16 (Ink4a) expression in keratinocytes” value in the series with p16 (Ink4a) was “significantly reduced”. For the same molecule, the “intracellular tyrosinase expression in melanocytes” value in the series with tyrosinase [1] was “significantly reduced”. Further, the “tyrosinase expression, CDH11 overexpressing co-cultured cell model” value with tyrosinase [2] (CDH11 model) is listed as “tyrosinase expression was reduced”. Besides, the “tyrosinase expression, control gene overexpressing co-cultured cell model (pCMV)” value with tyrosinase [2] (pCMV model of the CDH11 experiment) is listed as “did not show a significant difference in expression”; in the series on tyrosinase [3] (pCMV model of the GDA experiment), “significant reduction in tyrosinase expression”; in the series on tyrosinase [4] (pCMV model of the ARG2 experiment), “significant decrease in tyrosinase expression”. The “tyrosinase expression, GDA overexpressing co-cultured cell model” value in the series on tyrosinase [3] (GDA model, more distinct than in pCMV model) is listed as “degree of reduction in tyrosinase expression was more distinct”. In addition, the “skin whitening and anti-aging effects shown together” value in the series on tyrosinase; p16 (Ink4a) was “skin whitening and anti-aging effects were shown together”. In addition, the “tyrosinase expression, ARG2 overexpressing co-cultured cell model” value in the series with tyrosinase [4] (ARG2 model, more distinct than in pCMV model) was “degree of reduction in tyrosinase expression was more distinct”. Besides, the “cytotoxicity in melanocytes (cell viability, MTT)” value in the series with Melanocytes is “did not show cytotoxicity”.

These data come from patent publication US20260363977A1, “COSMETIC COMPOSITION FOR PREVENTING OR AMELIORATING SKIN DISEASES COMPRISING TRIBULUS TERRESTRIS-DERIVED COMPOUND AS ACTIVE INGREDIENT” (DONGGUK UNIVERSITY INDUSTRY-ACADEMIC COOPERATION FOUNDATION, priority 2022, published 2026).
